Data on one molecule can be found in patent publication US20090123389A1, “Methods for modulating Th17 cell development in the treatment and prevention of cellulite” (priority 2007, published 2009).

pIC50: −log10 of the molar value. Values joined by “and” are separate entries in the source; they are usually repeats but may differ in a detail not shown here. Equal entries are not always repeated. Where two headings read alike, the source gives them in different places. Where only a bound is given, the exact number is not on record here.

For series [1] the following is noted: rabbit, in vivo; cited from earlier work.
Series [2] deals with primary T cells. The series is classed as cell-based. As to the method: The non-specific cytoxicity of HF in both normal and transformed T-cells at high doses was evaluated. Anti-CD3/anti-CD28 activated primary T cells were harvested 6 days after activation and cultured in the presence of IL-2 with or without HF (100 nM). As a positive control, some T cells were cultured without IL-2 to induce apoptosis (FIG. 3A). Jurkat T cells, a transformed T cell leukemia line, were cultured in complete medium with or without HF (100 nM) as indicated (FIG. 3B). Both primary and Jurkat T cells were cultured for 30 hours and programmed cell death, i.e. apoptosis, was determined by Annexin V staining and propidium iodide (PI) uptake and cells were analyzed by flow cytometry. The percent of apoptotic T cells at each time point was plotted and was defined as Annexin V^+ PI^−. […] In further experiments, titrating amounts of HF were added to primary T cells and apoptosis was determine as above at the indicated time points. At 100 nM HF, but not 30 nM or lower, generalized T-cell apoptosis was observed (FIG. 3C).

For series [3], the system named is CD4+ CD25− T cells. As to the kind of experiment: Th17 differentiation / IL-17 expression of activated CD4+ CD25− T cells (TGFβ plus IL-6). The series is classed as cell-based, mouse. Conditions: for pIC50: Mus musculus, T-cell. As to the method:
Low doses of halofuginone (HF) were tested to determine the ability of HF to enhance Treg differentiation, while suppressing Th17 differentiation. Naïve CD4+ T cells (CD4+ CD25−) were isolated from the spleen and peripheral lymph nodes of C57B/6 mice. T cells were then activated using anti-CD3 (0.3 μg/ml) and anti-CD28 (0.5 μg/ml) antibodies either in media alone (row 1, 4), TGFβ alone (3 ng/ml—row 2, 5) or TGFβ (3 ng/ml) plus IL-6 (30 ng/ml) (row 3, 6). […] T cells were cultured for 3 days and CD25 and Foxp3 expression (Treg marker genes) was determine by FACS staining and flow cytometric analyses. Simultaneously, T cells were harvested and re-stimulated for 4 hours using phorbol myristic acetate (PMA; 10 nM), Ionomycin (1 μM) and cytokine secretion was prevented using brefeldin A (20 μg/ml). Following stimulation, the production of IL-17 and IFNγ were determined by intracellular staining and analyzed via flow cytometry.
The dose-response of HF on CD4+ T cell proliferation, activation (i.e. CD25 upregulation) and differentiation to Th1, Th2 and Th17 lineages were evaluated. Purified murine naïve CD4+ CD25− T cells were activated using anti-CD3 (0.3 μg/ml) and anti-CD28 (0.5 μg/ml) antibodies and varying amounts of HF was added to each T cell culture condition (1.25 nM-40 nM). CD4+ T cell proliferation was monitored by CFSE dilution on day 3-post activation and CD25 expression was evaluated by FACS staining 2 days after activation. For T cell differentiation experiments, naïve T cells were activated as above in the presence of Th1 (IL-12 (20 ng/ml) plus anti-IL-4 (1.5 μg/ml)), Th2 (IL-4 (50 ng/ml) plus anti-IFNγ (0.5 mg/ml)) or Th17 (TGFβ (3 ng/ml) plus IL-6 (30 ng/ml)) polarizing conditions plus titrating amounts of HF (1.25 nM-40 nM) or MAZ1310 (40 nM). […] All cytokine expression was determined by intracellular staining following PMA+Ionomycin+Brefeldin A re-stimulation and all data was normalized to control (MAZ1310)-treated cells. […] Biol., vol. 80:1-8 (2006).
Cytokines, antibodies and T cell culture: Purified CD4^+ CD25^− T cells were activated in vitro as previously described (I. M. Djuretic et al., Nat Immunol 8, 145 (2007)) using 0.3 μg/ml hamster anti-mouse CD3 (clone 145-2C11) (ATCC—Manassas, Va.) and 0.5 μg/ml hamster anti-mouse CD28 (BD Pharmingen, San Jose, Calif.). Activated cell cultures were differentiated using the following combinations of cytokines and antibodies: iTreg=recombinant human TGFβ1 (3 ng/ml; R&D systems, Minneapolis, Minn.), Th17=TGFβ1 (3 ng/ml) plus recombinant mouse IL-6 (30 ng/ml, R&D systems). Th1 and Th2 differentiation was performed as previously described. (I. M. Djuretic et al., Nat Immunol 8, 145 (2007)). Human IL-2 supernatant (National Cancer Institute) was used in culture at 0.01 U/ml and was added at 48 hours-post activation when T cells were split into tissue culture wells lacking CD3 and CD28 antibodies, with the exception of Th17 cultures that were maintained in the absence of IL-2. All reagents were added at the time of T cell activation and again at 48-hours post activation unless indicated otherwise. For some experiments, purified CD4^+ CD25^− T cells, CD8^+ T cells or B cells were labeled with 1 μM CFSE (Invitrogen) prior to activation in accordance with manufacturers instructions.
MAZ1310 was generated by chemical derivatization of halofuginone and was used at equal concentrations as a negative control.

As to `O=C(CC1NCCCC1O)Cn1cnc2cc(Br)c(Cl)cc2c1=O` (racemic) [HF, 7-bromo-6-chloro-3-[3-(3-hydroxy-2-piperidinyl)-2-oxopropyl]-4(3H)-quinazolinone], the “HF in serum after topical treatment of rabbits” value in series [1] is “undetectable in serum”. In series [2], the “HF concentration at which generalized T-cell apoptosis was not observed” value is listed as no more than 30 nM and the “HF concentration at which generalized T-cell apoptosis was observed” value is 100 nM. In addition, in series [3], the “IL-17 expression in cultures where IFNγ and IL-4 were blocked by neutralizing antibodies” value is given as “reduced IL-17 expression”. Further, in series [3] (10 nM HF added at different times after activation), the “window of HF addition at start of culture giving most pronounced inhibition of IL-17 expression” value is 12 h. In series [3] (10 nM HF, TGFβ plus IL-6), the “IL-17 expression in T cells lacking Foxp3” value was “strongly repressed” and the “Th17 differentiation of T cells expressing STAT3C” value was “remained capable of differentiating into Th17 cells”. The “Il17 and Il17f mRNA expression” value in series [3] (10 nM HF, Th17 conditions, 4 days) is given as “impaired expression”. The pIC50 in series [3] (96 h, percentage of IL-17+ IFNγ− cells after restimulation on day 4-5, read-out: IC50 of repression of Th17 differentiation) is 8.44. Moreover, the pIC50 in series [3] (in vitro, read-out: 50% inhibition of Th17 cell development) is 8.52 to 8.70. Also, the “Th17 differentiation of cells expressing YFP or no transgene” value in series [3] (TAT-Cre treated T cells, TGFβ plus IL-6) is listed as “strongly impaired”. Moreover, the “HF concentration that inhibited expression of IL-17” value in series [3] (TGFβ/IL-6 treated T-cells) was 2.5 to 10 nM and 2.2 to 10 nM. The IL-17 production entry in series [3] (low concentrations of HF (1-10 nM)) is “strongly reduced”. In addition, the “fold lower doses for effects on Th17 differentiation than for general inhibition of T-cell proliferation and differentiation” value in series [3] (versus proliferation and Th1 or Th2 differentiation) is 5- to 10 fold and ~10 fold.
